Measurements: patent US20090191193A1, “Aryl Vinyl Sulfides, Sulfones, Sulfoxides and Sulfonamides, Derivatives Thereof and Therapeutic Uses Thereof” (TEMPLE UNIVERSITY-OF THE COMMONWEALTH SYSTEM OF HIGHER …, priority 2006, published 2009)

Key:
[1] = test system: K562 (chronic myelogenous leukaemia); experiment: Effect on tumor cell lines, viable cell count by trypan blue exclusion (Latham et al.): K562; format: cell-based; details: K562 chronic myelogenous leukaemia cells, viable cell count 96 hours after treatment
[2] = test system: DU145 (prostate cancer); experiment: Effect on tumor cell lines, viable cell count by trypan blue exclusion (Latham et al.): DU145; format: cell-based; details: DU145 prostate cancer cells, viable cell count 96 hours after treatment

| SMILES | melting point [°C] | IC50 ([1]; Homo sapiens, K562, 96 h) [µM] | IC50 ([2]; Homo sapiens, DU-145, 96 h) [µM] | IC50 [1] [µM] | IC50 [2] [µM] |
| --- | --- | --- | --- | --- | --- |
| COc1ccc(/C=C(\C#N)S(=O)(=O)Cc2ccccc2)c(F)c1 [Example 129] | 161 to 166 | 50 to 100 | > 100 |  |  |
| N#C/C(=C\c1ccccc1Cl)S(=O)(=O)Cc1ccccc1 [Example 130] | 155 to 160 | > 100 | > 100 |  |  |
| COc1cc(/C=C(\C#N)S(=O)(=O)Cc2ccccc2)cc(OC)c1OC [Example 131] | 142 to 146 | 50 to 100 | > 100 |  |  |
| COc1ccc(/C=C(\C#N)S(=O)(=O)Cc2ccccc2)c(OC)c1 [Example 132] | 125 to 130 | > 100 | > 100 |  |  |
| COc1ccc(/C=C(\C#N)S(=O)(=O)Cc2ccccc2)cc1OC [Example 133] | 170 to 174 | 50 to 100 | > 100 |  |  |
| COc1cc(/C=C(\C#N)S(=O)(=O)Cc2ccccc2)cc(OC)c1 [Example 134] | 152 to 156 | 10 to 25 | 50 to 100 |  |  |
| N#C/C(=C\c1ccccc1OCc1ccccc1)S(=O)(=O)Cc1ccccc1 [Example 137] | 93 to 97 | 50 to 100 | > 100 |  |  |
| N#C/C(=C\c1ccc(O)c([N+](=O)[O-])c1)S(=O)(=O)Cc1ccccc1 [Example 139] | 159 to 162 | 50 to 100 | > 100 |  |  |
| COc1ccc(/C=C(\C#N)S(=O)(=O)Cc2ccc(OC)cc2)cc1 [Example 141] | 163 to 167 | > 100 | > 100 |  |  |
| N#C/C(=C\c1ccc(F)cc1F)S(=O)(=O)Cc1ccccc1 [Example 142] | 133 to 135 | > 100 | > 100 |  |  |
| N#C/C(=C\c1cc(F)cc(F)c1)S(=O)(=O)Cc1ccccc1 [Example 143] | 148 to 150 | 25 to 50 | > 100 |  |  |
| COc1ccc(CS(=O)(=O)/C(C#N)=C/c2ccc(OC)c(OC)c2)cc1 [Example 148] | 155 to 160 | 25 to 50 | 50 to 100 |  |  |
| COc1ccc(NS(=O)(=O)/C(C#N)=C/c2ccc(Br)cc2)cc1 [Example 190] | 106 to 107 | 50 | 50 |  |  |
| COc1ccc(NS(=O)(=O)/C(C#N)=C/c2c(OC)cc(OC)cc2OC)cc1 [Example 191] | 134 to 136 |  |  | 1 to 10 | 1 to 10 |
| COc1ccc(NS(=O)(=O)/C(C#N)=C/c2c(F)c(F)c(F)c(F)c2F)cc1 [Example 192] | 100 to 102 | 1 to 10 | 10 to 25 |  |  |
| COc1ccc(NS(=O)(=O)/C(C#N)=C/c2c(F)c(F)c(F)c(F)c2F)cc1OS(=O)(=O)c1ccc(C)cc1 [Example 194, (E)-2-[(4-methoxy-3-(4-methylphenylsulfonyloxy)phenyl)sulfamoyl]-3-(2,3,4,5,6-pentafluorophenyl)acrylonitrile] | 112 to 114 | 1 to 10 | 1 to 10 |  |  |
| COc1ccc(/C=C(\C#N)S(=O)(=O)Nc2ccc(Cl)cc2)cc1 [Example 195] | 94 to 96 | 50 to 100 | 50 to 100 |  |  |
| N#C/C(=C\c1ccc(Br)cc1)S(=O)(=O)Nc1ccccc1Oc1ccccc1 [Example 196] | 129 to 134 | 50 to 100 | 50 to 100 |  |  |

| SMILES | melting point [°C] | IC50 ([1]; Homo sapiens, K562, 96 h) [µM] | IC50 ([2]; Homo sapiens, DU-145, 96 h) [µM] | IC50 [1] [µM] | IC50 [2] [µM] |
| --- | --- | --- | --- | --- | --- |
| N#C/C(=C\c1c[nH]c2ccccc12)S(=O)(=O)Nc1ccccc1Oc1ccccc1 [Example 197] | 210 to 212 | 50 to 100 | 50 to 100 |  |  |
| Cc1ccc(/C=C(\C#N)S(=O)(=O)Nc2ccccc2Oc2ccccc2)s1 [Example 198] | 141 to 143 | 50 to 100 | 50 to 100 |  |  |
| COc1ccccc1/C=C(\C#N)S(=O)(=O)Nc1ccccc1Oc1ccccc1 [Example 199] | 116 to 118 | 50 to 100 | > 100 |  |  |
| COc1ccc(NS(=O)(=O)/C(C#N)=C/c2ccc(F)cc2)cc1 [Example 200] | 107 to 109 | 50 to 100 | > 100 |  |  |
| COc1ccc(NS(=O)(=O)/C(C#N)=C/c2cc(OC)ccc2OC)cc1 [Example 202] | 156 to 158 | 10 to 25 | 50 to 100 |  |  |
| COc1ccc(NS(=O)(=O)/C(C#N)=C/c2ccccc2OC)cc1 [Example 204] | 133 to 135 | 50 to 100 | > 100 |  |  |
| N#C/C(=C\c1c[nH]c2ccccc12)S(=O)(=O)Nc1ccc(Cl)cc1 [Example 205] | 216 to 217 | 25 to 50 | 50 to 100 |  |  |
| COc1cc(OC)c(/C=C(\C#N)S(=O)(=O)Nc2ccccc2Oc2ccccc2)c(OC)c1 [Example 208] | 154 to 156 | 25 to 50 | 50 to 100 |  |  |
| N#C/C(=C\c1ccccc1Oc1ccccc1)S(=O)(=O)Nc1ccccc1Oc1ccccc1 [Example 210] | 138 to 140 | 1 to 10 | 25 to 50 |  |  |
| CCOc1ccc(/C=C(\C#N)S(=O)(=O)Nc2ccccc2Oc2ccccc2)cc1OC [Example 211] | 142 to 144 | 1 to 10 | 1 to 10 |  |  |
| N#C/C(=C\c1ccc(Cl)cc1)S(=O)(=O)Nc1ccc(Br)cc1 [Example 212] | 169 to 171 | 25 to 50 | 25 to 50 |  |  |
| N#C/C(=C\c1ccccc1OCc1ccccc1)S(=O)(=O)Nc1ccc(Br)cc1 [Example 213] | 128 to 130 | 25 to 50 | 25 to 50 |  |  |
| N#C/C(=C\c1c[nH]c2ccccc12)S(=O)(=O)Nc1ccc(Br)cc1 [Example 214] | 208 to 210 | 25 to 50 | 50 to 100 |  |  |
| N#C/C(=C\c1ccc(O)c([N+](=O)[O-])c1)S(=O)(=O)Nc1ccc(Br)cc1 [Example 223] | > 250 | > 100 | > 100 |  |  |
| COc1ccccc1/C=C(\C#N)S(=O)(=O)Nc1ccc(Br)cc1 [Example 225] | 187 to 189 | 50 to 100 | 50 to 100 |  |  |
| N#C/C(=C\c1ccc(F)cc1F)S(=O)(=O)Nc1ccc(Br)cc1 [Example 226] | 165 to 166 | 25 to 50 | 25 to 50 |  |  |
| N#C/C(=C\c1ccccc1Cl)S(=O)(=O)Nc1ccc(Br)cc1 [Example 227] | 192 to 194 | 25 to 50 | 50 to 100 |  |  |
| N#C/C(=C\c1ccccc1O)S(=O)(=O)Nc1ccc(Br)cc1 [Example 228] | 169 to 170 | 25 to 50 | 25 to 50 |  |  |

More lines, now with the values ahead:

| melting point [°C] | IC50 ([1]; Homo sapiens, K562, 96 h) [µM] | IC50 ([2]; Homo sapiens, DU-145, 96 h) [µM] | IC50 [1] [µM] | IC50 [2] [µM] | SMILES |
| --- | --- | --- | --- | --- | --- |
| 140 to 143 | > 100 | > 100 |  |  | COc1ccc(OC)c(/C=C(\C#N)S(=O)(=O)Cc2ccccc2)c1 [Example 135] |
| 126 to 129 | 1 to 10 | 25 to 50 |  |  | Cc1ccc(C)c(/C=C(\C#N)S(=O)(=O)Cc2ccccc2)c1 [Example 136] |
| 143 to 147 | 25 to 50 | > 100 |  |  | N#C/C(=C\c1ccccc1Cl)S(=O)(=O)Cc1ccc(Br)cc1 [Example 144] |
| 159 to 163 | > 100 | > 100 |  |  | N#C/C(=C\c1ccccc1Cl)S(=O)(=O)Cc1ccc(F)cc1 [Example 145] |
| 136 to 138 | 25 to 50 | 50 to 100 |  |  | COc1ccc(CS(=O)(=O)/C(C#N)=C/c2ccc(Cl)c(Cl)c2Cl)cc1 [Example 146] |
| 156 to 160 | > 100 | > 100 |  |  | COc1ccc(CS(=O)(=O)/C(C#N)=C/c2ccc(OC)cc2OC)cc1 [Example 147] |
| 135 to 140 | 50 to 100 | > 100 |  |  | COc1ccc(CS(=O)(=O)/C(C#N)=C/c2cc(OC)cc(OC)c2)cc1 [Example 149] |
| 158 to 160 | > 100 | > 100 |  |  | CN(C)c1ccc(/C=C(\C#N)S(=O)(=O)Nc2ccccc2Oc2ccccc2)cc1 [Example 206] |
| 136 to 138 | 50 to 100 | 50 to 100 |  |  | N#C/C(=C\c1ccc(Cl)cc1)S(=O)(=O)Nc1ccccc1Oc1ccccc1 [Example 207] |
| 83 to 85 | 50 to 100 | > 100 |  |  | N#C/C(=C\c1ccc(O)c([N+](=O)[O-])c1)S(=O)(=O)Nc1ccccc1Oc1ccccc1 [Example 209] |
| 197 to 199 | 10 to 25 | 25 to 50 |  |  | COc1cc(OC)c(/C=C(\C#N)S(=O)(=O)Nc2ccc(Br)cc2)c(OC)c1 [Example 215] |
| 190 to 192 | 25 to 50 | 50 to 100 |  |  | CN(C)c1ccc(/C=C(\C#N)S(=O)(=O)Nc2ccc(Br)cc2)cc1 [Example 216] |
| 174 to 176 | 25 to 50 | 50 to 100 |  |  | N#C/C(=C\c1ccc(Br)cc1)S(=O)(=O)Nc1ccc(Br)cc1 [Example 217] |
| 146 to 148 | 50 to 100 | > 100 |  |  | COc1ccc(/C=C(\C#N)S(=O)(=O)Nc2ccc(Br)cc2)c(OC)c1OC [Example 218] |
| 188 to 190 | 50 to 100 | 50 to 100 |  |  | CCOc1ccc(/C=C(\C#N)S(=O)(=O)Nc2ccc(Br)cc2)cc1OC [Example 219] |
| 174 to 176 | < 1 | 1 to 10 |  |  | N#C/C(=C\c1c(F)c(F)c(F)c(F)c1F)S(=O)(=O)Nc1ccc(Br)cc1 [Example 221] |
| 242 to 253 | 25 to 50 | 25 to 50 |  |  | N#C/C(=C\c1c[nH]c2ccc(Br)cc12)S(=O)(=O)Nc1ccc(Br)cc1 [Example 222] |
| 176 to 179 | 50 to 100 | 50 to 100 |  |  | Cc1ccsc1/C=C(\C#N)S(=O)(=O)Nc1ccc(Br)cc1 [Example 224] |
